Data taken from the supplement of paper PMC10307832.

How the values were obtained:
Experiment in all cases: relative viability (nuclei count vs DMSO), 5 days (fraction); higher = more cells survive
[1] = compound: CC1=NN=C(O1)C2=NN=C(C=C2)N3CCC(CC3)OC4=C(C=CC(=C4)F)Cl + CS(=O)(=O)CCNCc1ccc(-c2ccc3ncnc(Nc4ccc(OCc5cccc(F)c5)c(Cl)c4)c3c2)o1 [Lapatinib] (partner 2 µM)
Method in brief: (§1)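 Lung cancer cell lines in 1536-well plates were dosed by pin tool the day after seeding, either with one drug alone or with a fixed anchor-drug dose plus five library-drug doses (not always all listed) in √10 steps. After 5 days, cells were fixed and their nuclei stained in one step (final 0.05% Triton X-100, 1% formaldehyde, 1 ug/ml Hoechst), then counted on 4× images. Relative viability is the nuclei count in treated wells divided by that in vehicle wells. Values are medians of duplicate plates.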

[2] = compound: CC(C)C[C@@H](C(=O)N[C@H](C(=O)OC1CCCC1)c1ccccc1)[C@H](O)C(=O)NO [Tosedostat] + N=C(N)NC(=N)NCCc1ccccc1 [Phenformin] (partner 250 µM)
Method in brief: as §1

[3] = compound: CC(C)C[C@@H](C(=O)N[C@H](C(=O)OC1CCCC1)c1ccccc1)[C@H](O)C(=O)NO [Tosedostat] + Cc1cc(Nc2cc(N3CCN(C)CC3)nc(Sc3ccc(NC(=O)C4CC4)cc3)n2)n[nH]1 [Tozasertib] (partner 0.1 µM)
Method in brief: as §1

[4] = compound: CC1=NN=C(O1)C2=NN=C(C=C2)N3CCC(CC3)OC4=C(C=CC(=C4)F)Cl + CC(C)C[C@H](NC(=O)[C@H](Cc1ccccc1)NC(=O)c1cnccn1)B(O)O [Bortezomib] (partner 0.002 µM)
Method in brief: as §1

Cell Line	relative viability ([1]; first compound 0.253 µM)	relative viability ([1]; first compound 0.8 µM)	relative viability ([1]; first compound 2.53 µM)	relative viability ([1]; first compound 8 µM)	relative viability ([2]; first compound 0.02 µM)	relative viability ([2]; first compound 0.06325 µM)	relative viability ([2]; first compound 0.2 µM)	relative viability ([2]; first compound 0.6325 µM)	relative viability ([2]; first compound 2 µM)	relative viability ([3]; first compound 0.02 µM)	relative viability ([3]; first compound 0.06325 µM)	relative viability ([3]; first compound 0.2 µM)	relative viability ([3]; first compound 0.6325 µM)	relative viability ([3]; first compound 2 µM)	relative viability ([4]; first compound 0.253 µM)	relative viability ([4]; first compound 0.8 µM)	relative viability ([4]; first compound 2.53 µM)	relative viability ([4]; first compound 8 µM)
201T	0.392	0.471	0.524	0.435	0.425	0.445	0.461	0.428	0.445	0.938	1.02	1.06	1.11	0.968	0.484	0.569	0.592	0.552
A549	0.523	0.365	0.4	0.425	0.154	0.217	0.233	0.101	0.116									
A-427	0.818		0.825	0.54	0.322	0.393	0.376	0.301	0.323	0.217	0.196	0.185	0.162	0.152	0.867		0.864	0.802
ABC-1	1.13	1.07	0.92	0.887	0.201	0.201	0.247	0.23	0.206	0.17	0.194	0.137	0.118	0.17	0.26	0.314	0.237	0.267
BEN	0.607	0.729	0.743	0.61	0.263	0.251	0.269	0.253	0.273	0.535	0.523	0.429	0.326	0.252	0.726	0.771	0.932	0.719
CAL-12T	0.59	0.565	0.579	0.425	0.639	0.552	0.508	0.446	0.371	0.366	0.313	0.345	0.279	0.301	1.01	0.867	0.86	0.696
COR-L23	0.811	0.761	0.756	0.602	0.486	0.386	0.415	0.383	0.401	0.214	0.165	0.172	0.161	0.128	0.737	0.754	0.836	0.68
COR-L 105	0.349	0.36	0.332	0.417	0.517	0.465	0.447	0.399	0.363	0.359	0.291	0.392	0.378	0.338	0.851	0.78	0.983	1.18
Calu-6	0.65	0.604	0.636	0.557											0.764	0.807	0.832	0.804
ChaGo-K-1					0.435	0.522	0.487	0.412	0.359	0.241	0.227	0.269	0.199	0.176	0.624	0.617	0.794	0.605
EBC-1	0.208	0.191	0.182	0.197											0.479	0.476	0.444	0.412
EKVX	0.175	0.178	0.187	0.193	0.216	0.236	0.228	0.202	0.192	0.401	0.511	0.392	0.358	0.311	0.368	0.301	0.357	0.418
EMC-BAC-2	0.837	0.843	0.854	0.647	0.495	0.508	0.552	0.473	0.442	0.281	0.27	0.265	0.242	0.187	1.02	0.964	1.02	0.95
EPLC-272H	0.809		1.01	0.814	0.288	0.299	0.259	0.239	0.189	0.7	0.172	0.16	0.124	0.107	0.667		1.05	0.996
H3255	0.24	0.193	0.266	0.269	0.361	0.369	0.386	0.407	0.402	0.575	0.717	0.643	0.534	0.656	0.465	0.569	0.478	0.526
HARA	0.397	0.363	0.403	0.285	0.505	0.383	0.433	0.326	0.35	0.111	0.129	0.0782	0.0748	0.07	0.483	0.335	0.353	0.293
HCC-15	0.418	0.408	0.415	0.414	0.512	0.46	0.432	0.348	0.32	0.571	0.415	0.43	0.274	0.346	0.485	0.407	0.415	0.395
HCC-44	0.324	0.439	0.383	0.43	0.19	0.221	0.183	0.111	0.117	1.18	0.893	0.885	0.806	0.338	0.449	0.43	0.398	0.431
HCC-78	0.401	0.351	0.404	0.325	0.644	0.68	0.637	0.671	0.752	0.414	0.509	0.426	0.461	0.406	0.326	0.403	0.393	0.363

Cell Line	relative viability ([1]; first compound 0.253 µM)	relative viability ([1]; first compound 0.8 µM)	relative viability ([1]; first compound 2.53 µM)	relative viability ([1]; first compound 8 µM)	relative viability ([2]; first compound 0.02 µM)	relative viability ([2]; first compound 0.06325 µM)	relative viability ([2]; first compound 0.2 µM)	relative viability ([2]; first compound 0.6325 µM)	relative viability ([2]; first compound 2 µM)	relative viability ([3]; first compound 0.02 µM)	relative viability ([3]; first compound 0.06325 µM)	relative viability ([3]; first compound 0.2 µM)	relative viability ([3]; first compound 0.6325 µM)	relative viability ([3]; first compound 2 µM)	relative viability ([4]; first compound 0.253 µM)	relative viability ([4]; first compound 0.8 µM)	relative viability ([4]; first compound 2.53 µM)	relative viability ([4]; first compound 8 µM)
IA-LM	0.283	0.241	0.257	0.275											0.17	0.137	0.132	0.186
LCLC-103H					0.361	0.308	0.323	0.323	0.32	0.508	0.512	0.545	0.407	0.276	0.69	0.829	0.744	0.675
LK-2	0.982	0.945	0.947	0.818	0.38	0.529	0.455	0.259	0.347	0.17	0.208	0.165	0.162	0.162				
NCI-H358	0.545	0.447	0.55	0.451	0.387	0.3	0.223	0.219	0.238	0.0914	0.1	0.0977	0.0822	0.0804				
NCI-H441					0.861	0.833	0.569	0.61	0.713	0.911	0.567	0.561	0.542	0.423	0.294	0.362	0.305	0.234
NCI-H522					1.31	0.592	0.659	0.624	0.58	0.561	0.566	0.533	0.509	0.45				
NCI-H1299	0.737	0.718	0.752	0.687											0.935	0.911	0.858	0.807
NCI-H1395	0.849	0.782	1.02	0.873	0.418	0.424	0.419	0.41	0.446	0.757	0.748	0.768	0.678	0.675				
NCI-H1563	0.804	0.992	0.88	0.82	0.653	0.703	0.662	0.722	0.65						0.872	0.829	0.823	0.934
NCI-H1623					0.558	0.609	0.622	0.519	0.618	0.41	0.42	0.425	0.387	0.42				
NCI-H1648										0.518	0.493	0.402	0.576	0.433				
NCI-H1703	1.06	0.795	0.904	0.76											0.304	0.278	0.222	0.218
NCI-H1792	0.417	0.436	0.404	0.502	0.243	0.472	0.445	0.404	0.31						0.405	0.423	0.401	0.494
NCI-H1793	0.75	0.688	0.822	0.581	0.252	0.321	0.284	0.31	0.203	0.289	0.386	0.295	0.31	0.289				
NCI-H1944	0.452	0.526	0.553	0.426	0.21	0.194	0.217	0.196	0.211	0.244	0.244	0.23	0.256	0.22				
NCI-H2170	0.268	0.241	0.291	0.26	0.409	0.424	0.381	0.396	0.408	0.737	0.728	0.734	0.707	0.689				
NCI-H2342					0.513	0.733	0.558	0.494	0.442	0.489	0.537	0.522	0.496	0.491				
SK-MES-1	0.452	0.528	0.445	0.518	0.696	0.686	0.663	0.568	0.54	1.01	0.822	0.95	0.801	0.61				
SW 900					0.496	0.606	0.478	0.367	0.417	0.573	0.482	0.421	0.427	0.314				
